Test results reported in patent publication US11737459B2, “Use of nootkatone to kill sap-sucking insects” (EVOLVA SA, priority 2016, dated 2023).
“And” between values parts separate entries of the source, which are not always exact repeats. Identical values can stand only once. Like-named read-outs stand apart in the source and are kept apart here.

Tests used:
[1] = tested on: Red flour beetle (Tribolium castaneum); assay: Laboratory filter-paper bioassay, red flour beetles exposed to nootkatone; assay type: in vivo; design: unit not given here; conditions: 1% v/v nootkatone on filter paper
Description: (§1) This example describes a laboratory bioassay in which groups of house flies and red flour beetles were exposed to a nootkatone-containing composition to determine their susceptibilities to low concentrations of nootkatone.
(§2) One milliliter of a 1% v/v nootkatone in ethanol was applied directly to 9 cm filter paper discs using a micropipette. The filter papers were allowed to dry completely and cut to the appropriate size prior to the start of the test. A negative control group (consisting of untreated replicates—ethanol only) was also assessed for comparative purposes.
(§3) Treated and untreated filter papers were cut so that they covered the bottom of a suitable container for each test species as follows:
Flour beetles—Five replicates of 10 insects were tested. A Petri dish lid 3.54 inches (9 cm) in diameter was inverted and served as the substrate for a 2.75 inch (7 cm) treated filter paper circle. The small Petri dish bottom was inverted over the paper and had its sides treated with Fluon (or similar) to prevent climbing and force exposure with the filter paper. The entire Petri dish was enclosed with two rubber bands.
(§4) Readings were discontinued if treated mortality reached 100%, or control mortality exceeded 20%.

[2] = tested on: honey bee (Apis mellifera); conditions: for 48-hour Mortality (%), replicates A-C: individual replicates
Protocol: A negative control group and a solvent control group were maintained concurrently. Three replicate test chambers were maintained in each control and treatment group, with 10 bees in each test chamber. […] The positive control test was conducted concurrently with the definitive test. […] OECD Guidelines for Testing of Chemicals. […] The cumulative mortality observed in the test groups was used to determine the LD50, LOEC, and NOEC.
The primary stock served as a dosing solution for the highest concentration (100 μg a.i./bee). […] Prior to dosing, young adult bees were removed from the frames, distributed into holding containers, and returned to the holding incubator. Approximately 50 bees were impartially placed in each of eight containers in preparation for use in the various treatment and control groups as needed during the dosing procedure.
The test chambers were stainless steel cylinders measuring approximately 9 cm in diameter and 9 cm high, with perforations for ventilation. Each end of the test chamber was covered with a disposable plastic petri dish (approximately 10 cm in diameter), and the bottom petri dish was lined with filter paper. An inverted glass vial containing approximately 10 mL of 50% (w/v) sucrose solution was inserted through the lid of the chamber. The opening of the vial was covered with gauze, which prevented leakage allowing the bees to feed ad libitum throughout the test period. The test chambers were identified by study number, dosage group, and replicate.
Prior to dosing, the bees in each holding container were immobilized with nitrogen. While anesthetized, bees were individually dosed with the appropriate dosing solution. Bees in the test substance, positive control, and solvent control groups were dosed by administering a 4 μL droplet of the appropriate dosing solution to the dorsal side of the thorax of each bee with an adjustable micropipette. Ten bees were impartially placed in each test chamber. Bees in the positive control treatment group were handled and dosed in the same manner. Solvent control bees were dosed with acetone. Negative control bees were not dosed but were handled identically to the treated bees. After dosing, test chambers were distributed into a testing incubator by indiscriminate draw.
The bees were maintained in continuous darkness during the test except during periods of dosing and observations.
The bees were observed and counted periodically to evaluate mortality and signs of toxicity or abnormal behavior.
The negative control group was used for comparison with the treatment groups.

[3] = tested on: House fly (Musca domestica); assay: Laboratory filter-paper bioassay, house flies exposed to nootkatone; assay type: in vivo; design: key to Dead, Means: % mortality of insects (treated mortality up to 100%); KD, Means / Affected, Means: unit not given here; conditions: 1% v/v nootkatone on filter paper
Description: as §1, §2, §3
Flies—Five replicates of 10 insects were tested. Inverted 10 ounce (295 mL) clear plastic cups with a 0.5 inch (1.27 cm) hole burned into the center of the bottom, and with the sides coated with Fluon (or similar) were used as the treatment containers. The bottoms of the containers consisted of Petri dish lids 3.54 inches ([…]) in diameter lined with a treated filter paper circle the same diameter. The cup was placed over the filter paper in the lid and both were secured in place using 2 rubber bands. The insects were introduced through the hole in the cup, and a plastic disc was placed over the opening to prevent escapes.
as §4

[4] = tested on: Aphid (Schizaphis gramium); assay: Laboratory filter-paper bioassay of aphid susceptibility to nootkatone; assay type: in vivo; conditions: 1% v/v nootkatone in ethanol on filter paper, 24 hours post introduction
Description: This example describes a laboratory bioassay in which groups of aphids were exposed to a nootkatone-containing composition to determine aphid susceptibility to nootkatone.
One milliliter of a 1% v/v nootkatone in ethanol was applied directly to 9 cm filter paper discs using a micropipette. The filter papers were allowed to dry completely and cut to the appropriate size prior to the start of the test. Pure ethanol was used as a control.
Treated and untreated filter papers were cut into 2.5 inch (6.35 cm) squares and folded into envelopes to serve as containers for the test. Five replicates of 10 aphids were tested per treatment. After the aphids were placed inside, the openings were sealed using clips so that the aphids could not escape.
Aphids were observed after 24 hours post-introduction to the test containers.
as §4

Compound: C=C(C)[C@@H]1CCC2=CC(=O)C[C@@H](C)[C@]2(C)C1 [Nootkatone, nootkatone]
- Affected, Means ([1]; 30 minutes post introduction): 0.0
- Dead, Means ([1]; 30 minutes post introduction): 0.0
- KD, Means ([1]; 30 minutes post introduction): 0.0
- Affected, Means ([1]; 1 hour post introduction): 0.0
- Dead, Means ([1]; 1 hour post introduction): 0.0
- KD, Means ([1]; 1 hour post introduction): 0.0
- Affected, Means ([1]; 4 hours post introduction): 0.0
- Dead, Means ([1]; 4 hours post introduction): 0.0
- KD, Means ([1]; 4 hours post introduction): 0.0
- Affected, Means ([1]; 24 hours post introduction): 4.2
- Dead, Means ([1]; 24 hours post introduction): 0.0
- KD, Means ([1]; 24 hours post introduction): 4.2
- Affected, Means ([1]; 48 hours post introduction): 6.4
- Dead, Means ([1]; 48 hours post introduction): 6.4
- KD, Means ([1]; 48 hours post introduction): 0.0
- Affected, Means ([1]; 72 hours post introduction): 10.9
- Dead, Means ([1]; 72 hours post introduction): 10.9
- KD, Means ([1]; 72 hours post introduction): 0.0
- 48-hour Mortality Mean (%) ([2]; 6.25 μg a.i./bee topical): 10%
- 48-hour Mortality (%), replicates A-C ([2]; 6.25 μg a.i./bee topical): 0% and 10% and 20%
- 48-hour Mortality Mean (%) ([2]; 12.5 μg a.i./bee topical): 10%
- 48-hour Mortality (%), replicates A-C ([2]; 12.5 μg a.i./bee topical): 0% and 10% and 20%
- 48-hour Mortality Mean (%) ([2]; 25 μg a.i./bee topical): 0%
- 48-hour Mortality (%), replicates A-C ([2]; 25 μg a.i./bee topical): 0%
- 48-hour Mortality Mean (%) ([2]; 50 μg a.i./bee topical): 3.3%
- 48-hour Mortality (%), replicates A-C ([2]; 50 μg a.i./bee topical): 0% (2×) and 10%
- 48-hour Mortality Mean (%) ([2]; 100 μg a.i./bee topical): 13.3%
- 48-hour Mortality (%), replicates A-C ([2]; 100 μg a.i./bee topical): 10% (2×) and 20%
- NOEC (No Observable Effect Concentration) ([2]; 48-hour mortality, highest concentration tested): 100 μg a.i./bee
- Mortality in the treatment groups at the end of the test ([2]; all doses 6.25 to 100 μg a.i./bee, 48 hours, listed as Nootkatone 98%): less than 50%
- Affected, Means ([3]; 30 minutes post introduction): 0.0
- Dead, Means ([3]; 30 minutes post introduction): 0.0
- KD, Means ([3]; 30 minutes post introduction): 0.0
- Affected, Means ([3]; 1 hour post introduction): 0.0
- Dead, Means ([3]; 1 hour post introduction): 0.0
- KD, Means ([3]; 1 hour post introduction): 0.0
- Affected, Means ([3]; 4 hours post introduction): 0.0
- Dead, Means ([3]; 4 hours post introduction): 0.0
- KD, Means ([3]; 4 hours post introduction): 0.0
- Affected, Means ([3]; 24 hours post introduction): 14.0
- Dead, Means ([3]; 24 hours post introduction): 2.0
- KD, Means ([3]; 24 hours post introduction): 12.0
- Affected, Means ([3]; 48 hours post introduction): 28.0
- Dead, Means ([3]; 48 hours post introduction): 28.0
- KD, Means ([3]; 48 hours post introduction): 0.0
- Affected, Means ([3]; 72 hours post introduction): 44.0
- Dead, Means ([3]; 72 hours post introduction): 42.0
- KD, Means ([3]; 72 hours post introduction): 2.0
- Affected, Means [4]: 100.0%
- Dead, Means [4]: 94.0%
- KD (knockdown), Means [4]: 6.0%
- Dead, Means ([4]; listed as nootkatone): 94%
- KD (knockdown), Means ([4]; listed as nootkatone): 6%
